# Results taken from patent US11753407B2, “Compounds for treating spinal muscular atrophy” (PTC Therapeutics, Inc., priority 2012, dated 2023).
# Legend:
# [1] = system: Smn protein in SMA patient fibroblast cells (GM03813); experiment: Smn protein assay in cultured cells (SMN HTRF); type: cell-based, human; settings: SMA patient fibroblast cells, 48 hours; for EC1.5x for Smn protein expression: 7-point concentration curve, SMN HTRF, concentration producing 1.5 times Smn protein vs DMSO vehicle control; for maximum fold (Fold) increase of Smn protein: 7-point concentration data, fold relative to vehicle control
# How it was run: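 Smn protein quantified by HTRF with anti-SMN d2/kryptate pair, 665/620 nm ratio blank-corrected, in RIPA lysates of GM03813 fibroblasts after 48 h compound exposure (7 concentrations, 3.16-fold steps, triplicates). Values: concentration producing 1.5× vehicle Smn level, and maximal fold increase.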
# [2] = system: SMN2 minigene mRNA (SMN2-A minigene) in HEK293H cells; experiment: SMN2 minigene mRNA splicing RT-qPCR assay in cultured cells; type: cell-based, human; settings: Homo sapiens, HEK293-H; concentration increasing full length SMN2 mRNA 1.5-fold relative to vehicle-treated cells; HEK293H cells with SMN2-A minigene, 24 hours, 7-point concentration data; read-out: EC1.5x for production of full length SMN2 mRNA
# How it was run: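 EC1.5× = concentration raising full-length SMN2 minigene mRNA 1.5-fold over vehicle, from 7-point curves in duplicate. Stably transfected HEK293H cells exposed 24 h at 37 °C; lysates assayed by multiplex RT-qPCR, minigene FL signal normalized to GAPDH via modified ΔΔCt.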
SMILES,melting point,EC1.5x for Smn protein expression [1],maximum fold (Fold) increase of Smn protein [1],EC (1.5-fold increase) [2]
"CCCNC1(C)CCN(c2ccc3nc(-c4cc5c(C)nc(C)cn5n4)cc(=O)n3c2)CC1 [Compound 708, 2-(4,6-dimethylpyrazolo[1,5-a]pyrazin-2-yl)-7-[4-methyl-4-(propylamino)piperidin-1-yl]-4H-pyrido[1,2-a]pyrimidin-4-one]",181 to 183 °C,**** (an EC1.5x≤0.3 μM is indicated by four stars (****)),***** (a fold increase >1.65 is indicated by five stars (*****)),< 0.1 µM
"Cc1cn2nc(-c3cc(=O)n4cc(N5CCC(C)(NCCO)CC5)ccc4n3)cc2c(C)n1 [Compound 709, 2-(4,6-dimethylpyrazolo[1,5-a]pyrazin-2-yl)-7-{4-[(2-hydroxyethyl)amino]-4-methylpiperidin-1-yl}-4H-pyrido[1,2-a]pyrimidin-4-one]",196 to 198 °C,**** (an EC1.5x≤0.3 μM is indicated by four stars (****)),***** (a fold increase >1.65 is indicated by five stars (*****)),< 0.1 µM
"Cc1cc(C2CCN(C3CCC3)CC2)cn2c(=O)cc(-c3ccc4nn(C)cc4c3)nc12 [Compound 710, 7-(1-cyclobutylpiperidin-4-yl)-9-methyl-2-(2-methyl-2H-indazol-5-yl)-4H-pyrido[1,2-a]pyrimidin-4-one]",232 to 235 °C,**** (an EC1.5x≤0.3 μM is indicated by four stars (****)),***** (a fold increase >1.65 is indicated by five stars (*****)),< 0.1 µM
"Cc1cc(C2CCN(CCO)CC2)cn2c(=O)cc(-c3ccc4nn(C)cc4c3)nc12 [Compound 711, 7-[1-(2-hydroxyethyl)piperidin-4-yl]-9-methyl-2-(2-methyl-2H-indazol-5-yl)-4H-pyrido[1,2-a]pyrimidin-4-one]",216 to 222 °C,**** (an EC1.5x≤0.3 μM is indicated by four stars (****)),***** (a fold increase >1.65 is indicated by five stars (*****)),< 0.1 µM

# Further lines, with some results ahead:
melting point,SMILES,EC1.5x for Smn protein expression [1],maximum fold (Fold) increase of Smn protein [1],EC (1.5-fold increase) [2]
216 to 223 °C,"CCCN1CCC(c2cc(C)c3nc(-c4cc5c(C)nc(C)cn5n4)cc(=O)n3c2)CC1 [Compound 712, 2-(4,6-dimethylpyrazolo[1,5-a]pyrazin-2-yl)-9-methyl-7-(1-propylpiperidin-4-yl)-4H-pyrido[1,2-a]pyrimidin-4-one]",**** (an EC1.5x≤0.3 μM is indicated by four stars (****)),***** (a fold increase >1.65 is indicated by five stars (*****)),< 0.1 µM
246 to 250 °C,"Cc1cn2cc(-c3cc(=O)n4cc(N5CCN[C@H](C)C5)ccc4n3)cc(C3CC3)c2n1 [Compound 715, 2-(8-cyclopropyl-2-methylimidazo[1,2-a]pyridin-6-yl)-7-[(3R)-3-methylpiperazin-1-yl]-4H-pyrido[1,2-a]pyrimidin-4-one]",**** (an EC1.5x≤0.3 μM is indicated by four stars (****)),***** (a fold increase >1.65 is indicated by five stars (*****)),< 0.1 µM
246 to 250 °C,"Cc1cn2cc(-c3cc(=O)n4cc(N5CCN[C@@H](C)C5)ccc4n3)cc(C3CC3)c2n1 [Compound 716, 2-(8-cyclopropyl-2-methylimidazo[1,2-a]pyridin-6-yl)-7-[(3S)-3-methylpiperazin-1-yl]-4H-pyrido[1,2-a]pyrimidin-4-one]",*** (an EC1.5× between >0.3 μM and ≤1 μM is indicated by three stars (***)),***** (a fold increase >1.65 is indicated by five stars (*****)),< 0.1 µM
